We go through twelve compounds from ChEMBL document CHEMBL3399936, “Selective CB2 receptor agonists. Part 1: the identification of novel ligands through computer-aided drug design (CADD) approaches” (Bioorg Med Chem Lett, 2015).

Each structure is given as a SMILES string. Converted amounts (≈) assume the structure as drawn.

The target of one series is Cannabinoid receptor 2 (Homo sapiens, UniProt P34972). The series is described as follows: Inhibition of human CB2 receptor expressed in CHO cells assessed as inhibition of forskolin-induced cAMP accumulation after 30 mins. Format: functional, cell-based. A general note: Cyclic AMP is a second messenger, typically raised through Gs and lowered through Gi signalling.
Sequence of Cannabinoid receptor 2 (P34972 whole entry): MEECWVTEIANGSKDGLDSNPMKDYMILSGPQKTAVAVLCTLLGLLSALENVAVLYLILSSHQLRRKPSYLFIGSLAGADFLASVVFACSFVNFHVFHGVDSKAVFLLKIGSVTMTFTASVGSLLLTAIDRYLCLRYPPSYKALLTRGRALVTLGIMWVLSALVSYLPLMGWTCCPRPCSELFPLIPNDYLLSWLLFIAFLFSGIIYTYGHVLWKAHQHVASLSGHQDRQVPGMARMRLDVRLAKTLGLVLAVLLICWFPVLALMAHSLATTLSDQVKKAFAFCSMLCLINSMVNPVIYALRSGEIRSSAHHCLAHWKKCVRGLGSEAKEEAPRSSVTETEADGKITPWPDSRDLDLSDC
The nature of series [1]: Half life in human liver microsomes at 1 uM by LC/MS/MS analysis. Format: ADME.
The species named for another series is Homo sapiens. Description: Ratio of EC50 for human CB1 receptor to EC50 for human CB2 receptor.
In series [2] the target is T1, Cannabinoid receptor 1 (Homo sapiens, UniProt P21554). The series is described as follows: Inhibition of human CB1 receptor expressed in CHO cells assessed as inhibition of forskolin-induced cAMP accumulation after 30 mins. Format: functional, cell-based.
T1 sequence (P21554 whole entry): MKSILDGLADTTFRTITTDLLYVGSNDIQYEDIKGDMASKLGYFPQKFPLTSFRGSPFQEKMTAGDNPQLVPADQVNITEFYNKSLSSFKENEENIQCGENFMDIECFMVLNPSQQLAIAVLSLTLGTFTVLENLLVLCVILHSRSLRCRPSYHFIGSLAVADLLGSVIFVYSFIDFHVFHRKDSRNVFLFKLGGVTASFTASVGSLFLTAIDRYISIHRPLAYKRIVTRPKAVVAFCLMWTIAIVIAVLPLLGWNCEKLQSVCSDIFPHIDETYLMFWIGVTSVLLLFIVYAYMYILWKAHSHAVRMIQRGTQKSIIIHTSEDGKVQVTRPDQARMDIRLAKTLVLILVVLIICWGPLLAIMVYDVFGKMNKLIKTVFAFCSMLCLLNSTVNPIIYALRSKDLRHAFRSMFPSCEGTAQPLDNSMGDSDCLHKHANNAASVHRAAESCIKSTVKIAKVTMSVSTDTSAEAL
Series [3] is described as follows: Solubility of the compound at pH 7.4 after 16 to 18 hrs by UV spectrophotometry. Format: physicochemical. As to conditions: buffer.
Series [4] addresses T1, Cannabinoid receptor 1. Description: Partial agonist activity at human CB1 receptor expressed in CHO cells assessed as cAMP accumulation after 30 mins. Format: functional, cell-based.

For orientation: EC50 means the concentration needed to bring the measured effect to its halfway point. A word on the half-life: it is how long it takes for the measured level to halve. High values mean slow loss, low ones fast loss. In general, solubility refers to the concentration that dissolves in the medium under given conditions. As for `CC(C)(C)c1cc(NC(=O)C(C)(C)S(=O)(=O)c2ccc(C(F)(F)F)cn2)no1`, the EC50 was 3 nM at Cannabinoid receptor 2 and 420 nM at Cannabinoid receptor 1 [2]. In series [1], this compound yielded a half-life at 1 µM below 5 min. Also, in the series listed under Homo sapiens, the Ratio EC50 came out at 140. Besides, the concentration in solution in series [3] (solubility) came to 12 µg/mL (≈ 28.6 µM).
Regarding `CC(C)(C)c1cc(NC(=O)[C@H]2CCCN2c2ccc(C(F)(F)F)cc2)no1`, the Activity at Cannabinoid receptor 1 [4] was below 70%.
For the compound `CC(C)(C)c1cc(NC(=O)N2CC3CC2CN3C(=O)c2ccc(C(F)(F)F)cc2)no1` (stereo not given), on Cannabinoid receptor 2, the EC50 is above 20 nM.
With `CC(C)(C)c1cc(NC(=O)[C@]2(C)CCCN2c2ccc(Cl)cc2)no1`, the Ratio EC50 in the series filed under Homo sapiens is 257. The concentration for a half-maximal effect (EC50) at Cannabinoid receptor 1 [2] came to 54 nM.
For `CC(C)(C)c1cc(NC(=O)[C@]2(C)CCCN2c2ccc(C(F)(F)F)cc2)no1`, the EC50 was determined as 0.29 nM on Cannabinoid receptor 2 and 15 nM at Cannabinoid receptor 1 [2]. In addition, the Ratio EC50 in the series listed under Homo sapiens worked out at 52.
In the case of `CCCCc1ccc(NC(=O)N2CCN(C(=O)CCC3CCCC3)CC2)cc1`, the EC50 on Cannabinoid receptor 2 is above 20 nM.
Turning to `CC(C)(C)c1cc(NC(=O)[C@H]2CCCN2c2ccc(Cl)cc2)no1`, the Activity at Cannabinoid receptor 1 [4] is below 70%.
As for `O=C(Nc1cc(C(F)(F)F)on1)N1CCCN(C(=O)c2ccc(C(F)(F)F)cc2)CC1`, the EC50 was found to be 1.4 nM at Cannabinoid receptor 2 and 1000 nM at Cannabinoid receptor 1 [2]. The Ratio EC50 in the series listed under Homo sapiens stood at 714.
For `CC(C)(C)c1cc(NC(=O)C(C)(C)S(=O)(=O)c2ccc(C(F)(F)F)cc2)no1`, the results for the EC50 on Cannabinoid receptor 2 and at Cannabinoid receptor 1 [2] were 0.77 nM and 420 nM, respectively. Also, in the series filed under Homo sapiens, the Ratio EC50 was found to be 545.
With `CC(C)(C)c1cc(NC(=O)[C@]2(C)CCCN2c2ccc(C(F)(F)F)cn2)no1`, the EC50 stood at 0.04 nM at Cannabinoid receptor 2 and 0.5 nM on Cannabinoid receptor 1 [2]. For the same compound, the Ratio EC50 in the series filed under Homo sapiens worked out at 12.
Regarding `O=C(Nc1cc(C(F)(F)F)on1)N1CCCN(C(=O)c2ccc(C(F)(F)F)cn2)CC1`, the EC50 on Cannabinoid receptor 2 was 5 nM; on Cannabinoid receptor 1 [2] it was 253 nM. Besides, in series [1], the half-life at 1 µM is 9 min. For the same compound, the Ratio EC50 in the series listed under Homo sapiens is 50. This compound also came in with a solubility in series [3] of 0.4 µg/mL (≈ 0.886 µM).
Consider `CC(C)(C)c1cc(NC(=O)[C@@H]2CCCN2c2ncc(C(F)(F)F)cc2Cl)no1`, for which, in the series filed under Homo sapiens, the Ratio EC50 was 88. Besides, the EC50 on Cannabinoid receptor 1 [2] was 7 nM.
